How the values were obtained:
Experiment in all cases: relative viability (nuclei count vs DMSO), 5 days (fraction); higher = more cells survive
[1] = compound: C1=CC2=C(C=C(C(=C2N=C1)O)N=NC3=CC4=C(C=C3)C=C(C=C4)S(=O)(=O)O)S(=O)(=O)O + COc1cccc2cc(-c3nc([C@H]4CC[C@H](C(=O)O)CC4)n4ncnc(N)c34)[nH]c12 [OSI-027] (partner 0.5 µM)
Summary of the method: (§1)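 Nuclei were stained with Hoechst during a one-step fixation (final 0.05% Triton X-100, 1% formaldehyde, 1 ug/ml Hoechst) carried out 5 days after dosing, then counted on 4× images. The cells, lung cancer lines in 1536-well plates, had been dosed by pin tool the day after seeding with one drug alone or a fixed anchor-drug dose plus five library-drug doses (not always all listed) in √10 steps. Relative viability is the nuclei count in treated wells divided by that in vehicle wells, and each value is the median of duplicate plates.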

[2] = compound: O=C(NC1CCNCC1)c1n[nH]cc1NC(=O)c1c(Cl)cccc1Cl [AT-7519] + CC1(C)CCC(c2ccc(Cl)cc2)=C(CN2CCN(c3ccc(C(=O)NS(=O)(=O)c4ccc(N[C@H](CCN5CCOCC5)CSc5ccccc5)c(S(=O)(=O)C(F)(F)F)c4)cc3)CC2)C1 [Navitoclax] (partner 0.5 µM)
Summary of the method: as §1

[3] = compound: O=C(NC1CCNCC1)c1n[nH]cc1NC(=O)c1c(Cl)cccc1Cl [AT-7519] + COc1cccc2cc(-c3nc([C@H]4CC[C@H](C(=O)O)CC4)n4ncnc(N)c34)[nH]c12 [OSI-027] (partner 0.5 µM)
Summary of the method: as §1

[4] = compound: O=C(NC1CCNCC1)c1n[nH]cc1NC(=O)c1c(Cl)cccc1Cl [AT-7519] + CS(=O)(=O)N1CCN(Cc2cc3nc(-c4cccc5[nH]ncc45)nc(N4CCOCC4)c3s2)CC1 [Pictilisib] (partner 1 µM)
Summary of the method: as §1

For UMC-11, the relative viability ([1]; first compound 0.08 µM) was 0.492, the relative viability ([1]; first compound 0.253 µM) was 0.435 and the relative viability ([1]; first compound 0.8 µM) was 0.458. For the same cell line, the relative viability ([1]; first compound 2.53 µM) was 0.47, the relative viability ([1]; first compound 8 µM) was 0.485 and the relative viability ([2]; first compound 0.01 µM) was 0.291. The relative viability ([2]; first compound 0.03162 µM) was 0.306, the relative viability ([2]; first compound 0.3162 µM) was 0.222 and the relative viability ([2]; first compound 1 µM) was 0.134. For the same cell line, the relative viability ([3]; first compound 0.01 µM) was 0.442, the relative viability ([3]; first compound 0.03162 µM) was 0.432 and the relative viability ([3]; first compound 0.3162 µM) was 0.404. The relative viability ([3]; first compound 1 µM) was 0.27, the relative viability ([4]; first compound 0.01 µM) was 0.787 and the relative viability ([4]; first compound 0.03162 µM) was 0.814. The relative viability ([4]; first compound 0.3162 µM) was 0.417 and the relative viability ([4]; first compound 1 µM) was 0.249.

Reference: the supplement of paper PMC10307832
